The subject of the test is visceral pain model in mice. The experiment in a line: Acetic acid writhing protocol (abdominal contortion test), visceral pain model in mice. The format is in vivo, male Swiss Webster mice. The settings on record: 50-400 mg/kg PO; lowest dose (50 mpk) removed as apparent outlier.

Procedure: In order to test the analgesic activity of the combination of an opioid (hydrocodone) and 3-hydroxyacetanilide, both compounds were tested separately and in combination in a visceral pain model in mice.
Experimental animals: One hundred fifty-five 4-week old, male Swiss Webster mice (stock number 024) were purchased from Charles River Laboratories (Portage, Mich.). The study animals were allowed an acclimation period of 1-2 weeks prior to dose initiation. The mice were housed 4-6 per cage and maintained in the Innovive caging system (San Diego, Calif.) upon arrival at. In accordance with the Guide for Care and Use of Laboratory Animals (Eighth Edition), mouse rooms were maintained at temperatures of 66-75 degrees Fahrenheit and relative humidity between 30% and 70%. Cages were monitored daily to ensure the Innovive system maintained 50 air changes per hour and positive pressure. The rooms were lit by artificial light for 12 hours each day (7:00 AM -7:00 PM). […]
Animals were allowed to acclimate to the testing room for a minimum of 1 hour prior to the experiment. […] The number of writhes over a 5 min duration were counted (5-10 and 15-20 min post-dose) starting 5 min after acetic acid administration. […]

Take `CC(=O)Nc1cccc(O)c1` [3-hydroxyacetanilide]: the “shape of dose response curve (% AA vs dose)” value is recorded as “bell-shaped”.

The values above are taken from US20140378496A1, “OPIOID […] 3-HYDROXYA[…] TREATING PAIN” (SLX PHARMACEUTICALS, LLC, priority 2011, published 2014).
